Laboratory results published in ChEMBL document CHEMBL5614408, “Indole-core inhibitors of influenza a neuraminidase: iterative medicinal chemistry and molecular modeling” (Eur J Med Chem, 2024).
Calls of active or inactive are those of the source. The calls are words filed in the database; no cut-off is given here.

How the values were obtained:
[1] = target: Neuraminidase (Influenza A virus (A/Puerto Rico/8/1934(H1N1)), UniProt P03468); assay: Inhibition of Influenza A virus A/Puerto Rico/8/34 (H1N1) neuraminidase assessed as reduction in neuraminidase activity by chemiluminescence based assay
[2] = (§1) Cytotoxicity against MDCK cells assessed as inhibition of cell growth incubated for 48 hrs by MTS assay; assay type: toxicity, cell-based, Canis lupus familiaris; conditions: dog, MDCK cells
[3] = system: Influenza A virus; assay: Antiviral activity against Influenza A virus A/Puerto Rico/8/34 (H1N1) infected in MDCK cells assessed as inhibition of viral infection preincubated with cells for 1 hrs followed by viral infection and measured after 48 hrs by hemagglutination assay; assay type: functional, organism-based
[4] = Selectivity index, ratio of CC50 for cytotoxicity against MDCK cells to IC50 for antiviral activity against Influenza A virus A/Puerto Rico/8/34 (H1N1) infected in MDCK cells; assay type: toxicity, cell-based; conditions: dog, read-out: Ratio CC50/IC50
[5] = system: MDCK; assay: as §1; assay type: toxicity, cell-based, Canis lupus familiaris; conditions: dog, mdck, 48 h
[6] = system: Influenza A virus; assay: (§2) Antiviral activity against influenza A virus A/California/04/2009 (H1N1) infected in female BALB/c mouse model assessed as survival rate at 20 mg/kg, po pretreated for 4 hrs followed by twice daily compound administration 4 hrs post viral infection and measured on day 11 post infection relative to control; assay type: functional; conditions: 264 h, time 11 day
[7] = system: Influenza A virus; assay: as §2, with “as inhibition of viral replication in lungs” for “as survival rate”, “at 50” for “at 20”, “day 4” for “day 11”, “infection” for “infection relative to control”; assay type: functional, organism-based; conditions: time 4.0 day
[8] = system: Influenza A virus; assay: as §2, with “at 50” for “at 20”; assay type: functional; conditions: 264 h, time 11 day
[9] = system: Influenza A virus; assay: as §2, with “reduction in body weight loss” for “survival rate”, “infection” for “infection relative to control”; assay type: functional, organism-based; conditions: time 11.0 day

Chain of Neuraminidase (Influenza A virus (A/Puerto Rico/8/1934(H1N1)), UniProt P03468) (P03468 whole entry): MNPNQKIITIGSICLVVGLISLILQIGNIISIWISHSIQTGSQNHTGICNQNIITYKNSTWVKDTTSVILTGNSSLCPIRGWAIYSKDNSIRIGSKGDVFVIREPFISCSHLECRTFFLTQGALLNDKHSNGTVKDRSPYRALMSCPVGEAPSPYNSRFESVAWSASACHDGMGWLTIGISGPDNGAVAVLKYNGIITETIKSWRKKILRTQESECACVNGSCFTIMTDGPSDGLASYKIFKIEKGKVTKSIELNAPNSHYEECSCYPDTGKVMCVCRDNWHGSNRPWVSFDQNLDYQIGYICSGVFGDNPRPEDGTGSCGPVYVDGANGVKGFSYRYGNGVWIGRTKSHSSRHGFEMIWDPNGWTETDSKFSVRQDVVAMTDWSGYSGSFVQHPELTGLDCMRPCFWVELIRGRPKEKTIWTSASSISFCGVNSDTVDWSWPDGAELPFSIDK

Structure (SMILES) | IC50 [1] | also measured
COc1ccc(N/C=C2\C(=O)c3ccccc3N2C(C)=O)cc1OC | 25.2 µM | –
CC(=O)N1/C(=C/Nc2cccc(F)c2F)C(=O)c2ccccc21 | 0.95 µM | –
CC(=O)N1/C(=C/Nc2ccc(Cl)cc2)C(=O)c2ccccc21 | 1.39 µM | –
CCOc1ccc(N/C=C2\C(=O)c3ccccc3N2C(C)=O)cc1 | 0.62 µM | –
CC(=O)N1/C(=C/Nc2cc(F)c(F)c(F)c2)C(=O)c2ccccc21 | 1 µM | –
CCC(=O)N1/C(=C/Nc2ccc(F)cc2)C(=O)c2ccccc21 | 0.43 µM | –
COc1ccc(N/C=C2\C(=O)c3cccnc3N2C(C)=O)cc1 | 2 µM | –
COc1ccccc1N/C=C1\C(=O)c2ccccc2N1C(C)=O | 1.08 µM | –
CCOC(=O)c1cccc(N/C=C2\C(=O)c3ccccc3N2C(C)=O)c1 | 0.28 µM | –
CC(=O)N1/C(=C/Nc2cccc(Oc3ccccc3)c2)C(=O)c2cccnc21 | – | CC50 at 48 h [2]: 540 µM; IC50 [3]: 120 µM; selectivity ratio [4]: 5
COc1ccc(N/C=C2\C(=O)c3cc(Cl)ccc3N2C(C)=O)cc1 | 5.43 µM | –
CC(=O)N1/C(=C/Nc2cccc(C(F)(F)F)c2)C(=O)c2ccccc21 | 0.96 µM | –
CCC(=O)N1/C(=C/Nc2cccc(F)c2)C(=O)c2ccccc21 | 0.23 µM | CC50 [5]: 95 µM; IC50 [3]: 11.3 µM; selectivity ratio [4]: 8
O=C1/C(=C\Nc2ccc(Cl)cc2)Nc2ccccc21 | 1.85 µM | –
CC(=O)N1/C(=C/Nc2ccc(F)c(F)c2)C(=O)c2ccccc21 | 0.47 µM | –
CC(=O)N1/C(=C/NCc2ccc(F)c(F)c2)C(=O)c2ccccc21 | 11.1 µM | –
CCCCOc1ccc(N/C=C2\C(=O)c3ccccc3N2C(C)=O)cc1 | 0.42 µM | –
O=C1/C(=C\Nc2ccccc2)Nc2ccccc21 | 5.36 µM | –
COc1cccc(N/C=C2\C(=O)c3ccccc3N2C(C)=O)c1 | 0.37 µM | –
CCOC(=O)c1cccc(N/C=C2\C(=O)c3cc(OC)ccc3N2C(C)=O)c1 | 1.33 µM | –
CC(=O)N1/C(=C/Nc2cccc(Cc3ccccc3)c2)C(=O)c2ccccc21 | 0.2 µM | –
CC(=O)N1/C(=C/Nc2ccc(OC(F)(F)F)cc2)C(=O)c2ccccc21 | 5.13 µM | –
CCOC(=O)C1=C[C@@H](OC(CC)CC)[C@H](NC(C)=O)[C@@H](N)C1 [OSELTAMIVIR] | – | survival at 20 mg/kg [6]: 50%
COc1ccc(OC)c(N/C=C2\C(=O)c3ccccc3N2C(C)=O)c1 | 0.99 µM | –

Structure (SMILES) | IC50 [1] | also measured
CC(=O)N1/C(=C/Nc2ccccc2)C(=O)c2ccccc21 | 0.37 µM | –
CC(=O)N1/C(=C/Nc2ccc(Cc3ccccc3)cc2)C(=O)c2ccccc21 | 0.1 µM | CC50 [5]: 1740 µM; IC50 [3]: 111 µM; selectivity ratio [4]: 16
COc1ccc(N/C=C2\C(=O)c3cc(OC)ccc3N2C(C)=O)cc1 | 1.7 µM | –
COc1ccc(N/C=C2/Nc3ccccc3C2=O)cc1 | 3.01 µM | –
CC(=O)N1/C(=C/Nc2ccc(Nc3ccccc3)cc2)C(=O)c2ccccc21 | 0.76 µM | –
CC(=O)N1/C(=C/Nc2ccccn2)C(=O)c2ccccc21 | 1.19 µM | –
CC(=O)N1/C(=C/Nc2cccc(S(N)(=O)=O)c2)C(=O)c2ccccc21 | 0.64 µM | –
CC(=O)N1/C(=C/Nc2cccc(Oc3ccccc3)c2)C(=O)c2ccccc21 | 0.5 µM | –
CCC(=O)N1/C(=C/Nc2ccc(OC)cc2)C(=O)c2ccccc21 | 0.73 µM | –
CC(=O)N1/C(=C/Nc2cc(F)cc(F)c2)C(=O)c2ccccc21 | 0.53 µM | –
CCC(=O)N1/C(=C/Nc2ccc(F)c(F)c2)C(=O)c2ccccc21 | 0.3 µM | –
CC(=O)N1/C(=C/Nc2ccc(C(F)(F)F)cc2)C(=O)c2ccccc21 | 0.77 µM | –
CC(=O)N1/C(=C/Nc2ccncc2)C(=O)c2ccccc21 | 1.08 µM | –
CC(=O)N1/C(=C/Nc2cccc(F)c2)C(=O)c2cccnc21 | 1.42 µM | –
CC(=O)N1/C(=C/Nc2ccc(F)cc2)C(=O)c2ccccc21 | 0.34 µM | –
CCOC(=O)c1cccc(N/C=C2\C(=O)c3cc(Cl)ccc3N2C(C)=O)c1 | 2.03 µM | –
COc1ccc(N/C=C2\C(=O)c3ccccc3N2C(C)=O)cc1 | 0.1 µM | CC50 [5]: 1810 µM; IC50 [3]: 12 µM; selectivity ratio [4]: 151
CC(=O)N1/C(=C/Nc2ccccc2C(F)(F)F)C(=O)c2ccccc21 | 0.58 µM | –
CCOC(=O)c1cccc(N/C=C2\C(=O)c3cccnc3N2C(C)=O)c1 | 9.84 µM | –
CC(=O)N1/C(=C/Nc2cccc(F)c2)C(=O)c2ccccc21 | 0.03 µM | Activity [7]: Active; CC50 [5]: 1480 µM; IC50 [3]: 33.8 µM; selectivity ratio [4]: 44; survival at 50 mg/kg [8]: 30%; Activity [9]: Active
COc1cc(N/C=C2\C(=O)c3ccccc3N2C(C)=O)cc(OC)c1OC | 2.71 µM | –
CC(=O)N1/C(=C/Nc2cccc(OC(F)(F)F)c2)C(=O)c2ccccc21 | 0.2 µM | Activity [7]: Active; CC50 [5]: 105 µM; IC50 [3]: 3 µM; selectivity ratio [4]: 35; survival at 50 mg/kg [8]: 30%; Activity [9]: Active
O=C1/C(=C\NCc2ccccc2)Nc2ccccc21 | 12.9 µM | –
COc1ccc(N/C=C2\C(=O)c3ccccc3N2C)cc1 | 1 µM | –
